In patent publication US10654854B2 (INTRA-CELLULAR THERAPIES, INC., priority 2016, dated 2020):
Where a name gives a salt, the structure may show the parent alone.

How the values were obtained:
[1] = Dynamic Vapour Sorption (DVS); format: physicochemical; settings: for DVS total mass uptake: at 95 RH %; for hygroscopicity (assessment from DVS): from total mass uptake at 95 RH %; for DVS Hygroscopicity (%): scale-up synthesis batch
Protocol: Dynamic Vapour Sorption (DVS): The Dynamic Vapour Sorption studies are performed using a Surface Measurement Systems Ltd. DVS-1 No Video, equipment #2126. The sample is loaded into a balance pan, typically 20-30 mg, and equilibrated at 0% RH. After the material was dried, the RH is increased with 10% per step for 1 hour per increment, ending at 95% RH. After completion of the sorption cycle, the sample was dried using the same method. The software used for data collection is DVSWin v3.01 No Video. Data analysis is performed using DVS Standard Analysis Suite v6.3.0 (Standard).

[2] = hygroscopicity and stability of salt forms (salt screen); format: physicochemical; settings: salt form
Protocol: In an effort to find new salts and polymorphs of ITI-007, an extensive salt screen was undertaken. […] Eventually, a toluenesulfonic acid addition salt (tosylate) was prepared, as described in WO 2009/114181, but no other stable salts were found. Finally, a major salt screen was carried out, wherein the free base compound was studied in different solvent systems and under different conditions, and then systematically screened using a selection of over 100 acids under different conditions and with different solvent, co-solvent and anti-solvent systems, to identify possible salt forms. Following extensive screening and experimentation, the following novel salts were discovered, characterized, and found to be reproducible and stable: oxalate, 4-aminosalicylate, and cyclamate.
(§1) Solubility of free base in various solvents is evaluated, and based on the results of the solubility range, suitable solvents are selected for the salt screen. The salt screen is divided into seven separate screens, using 90 different counter ions, six different solvents, and including four different crystallization methods, slurry experiments, cooling crystallization, evaporation and precipitation experiments. The counterions are selected based upon availability and potential suitability to form pharmaceutically acceptable acid addition salts. They include the class I, II and III acids identified in Stahl P. H., Wermuch C. G. (editors), Handbook of Pharmaceutical Salts, IUPAC (2008).

[3] = solubility of free base in water and organic solvents; format: physicochemical; settings: free base form; in water and in many organic solvents
Protocol: as §1

H1 histaminergic = H1 histaminergic (Homo sapiens, UniProt P35367); settings: cited from earlier work
5-HT2C = target: T1, 5-HT2C (Homo sapiens, UniProt P28335); settings: cited from earlier work
T1 sequence (P28335 33-458): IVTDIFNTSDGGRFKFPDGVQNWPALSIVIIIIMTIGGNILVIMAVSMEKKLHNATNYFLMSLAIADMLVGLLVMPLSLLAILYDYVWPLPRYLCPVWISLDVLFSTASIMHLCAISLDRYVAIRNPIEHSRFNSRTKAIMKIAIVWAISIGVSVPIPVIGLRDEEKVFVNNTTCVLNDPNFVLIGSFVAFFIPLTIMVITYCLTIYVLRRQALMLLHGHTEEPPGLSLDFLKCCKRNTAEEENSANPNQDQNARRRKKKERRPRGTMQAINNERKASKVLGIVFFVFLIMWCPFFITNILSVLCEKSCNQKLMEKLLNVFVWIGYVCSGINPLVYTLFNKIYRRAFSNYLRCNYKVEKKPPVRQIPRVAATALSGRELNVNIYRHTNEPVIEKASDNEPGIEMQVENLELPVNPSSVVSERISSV

muscarinic = settings: cited from earlier work

Chain of H1 histaminergic (P35367 whole entry): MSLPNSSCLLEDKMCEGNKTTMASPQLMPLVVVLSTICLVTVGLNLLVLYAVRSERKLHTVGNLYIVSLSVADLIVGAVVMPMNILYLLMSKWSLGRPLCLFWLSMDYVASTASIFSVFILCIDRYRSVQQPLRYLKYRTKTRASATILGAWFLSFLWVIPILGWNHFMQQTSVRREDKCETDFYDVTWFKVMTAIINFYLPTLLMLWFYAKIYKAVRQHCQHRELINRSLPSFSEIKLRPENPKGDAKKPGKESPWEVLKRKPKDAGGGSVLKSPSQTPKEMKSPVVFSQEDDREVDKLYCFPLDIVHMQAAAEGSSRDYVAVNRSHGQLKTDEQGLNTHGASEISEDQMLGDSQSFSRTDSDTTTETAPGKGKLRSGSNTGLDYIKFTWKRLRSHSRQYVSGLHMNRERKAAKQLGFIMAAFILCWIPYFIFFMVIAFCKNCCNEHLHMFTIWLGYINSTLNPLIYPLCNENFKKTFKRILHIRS

Row | SMILES | DVS total mass uptake [1] | hygroscopicity (assessment from DVS) [1] | DVS Hygroscopicity (%) [1] | stability [2] | DVS Hygroscopicity (%) ([1]; listed as FP-212 cyclamate salt) | solubility [3] | binding to receptors associated with cognitive and metabolic side effects (H1 histaminergic) | binding to receptors associated with cognitive and metabolic side effects (5-HT2C) | binding to receptors associated with cognitive and metabolic side effects (muscarinic)
1 | CN1CCN2c3c(cccc31)[C@@H]1CN(CCCC(=O)c3ccc(F)cc3)CC[C@@H]12 [4-aminosalicylate salt, 1-(4-fluoro-phenyl)-4-((6bR,10aS)-3-methyl-2,3,6b,9,10,10a-hexahydro-1H,7H-pyrido[3′,4′:4,5]pyrrolo[1,2,3-de]quinoxalin-8-yl)-butan-1-one] | 5% | moderately hygroscopic | 5% | stable |  |  |  |  | 
2 | CN1CCN2c3c(cccc31)[C@@H]1CN(CCCC(=O)c3ccc(F)cc3)CC[C@@H]12 [cyclamate salt, 1-(4-fluoro-phenyl)-4-((6bR,10aS)-3-methyl-2,3,6b,9,10,10a-hexahydro-1H,7H-pyrido[3′,4′:4,5]pyrrolo[1,2,3-de]quinoxalin-8-yl)-butan-1-one] | 8% | somewhat hygroscopic |  | stable | 8% |  |  |  | 
3 | CN1CCN2c3c(cccc31)[C@@H]1CN(CCCC(=O)c3ccc(F)cc3)CC[C@@H]12 [oxalate salt, 1-(4-fluoro-phenyl)-4-((6bR,10aS)-3-methyl-2,3,6b,9,10,10a-hexahydro-1H,7H-pyrido[3′,4′:4,5]pyrrolo[1,2,3-de]quinoxalin-8-yl)-butan-1-one] | 5% | moderately hygroscopic | 5% | stable |  |  |  |  | 
4 | CN1CCN2c3c(cccc31)[C@@H]1CN(CCCC(=O)c3ccc(F)cc3)CC[C@@H]12 [ITI-007, 1-(4-fluoro-phenyl)-4-((6bR,10aS)-3-methyl-2,3,6b,9,10,10a-hexahydro-1H,7H-pyrido[3′,4′:4,5]pyrrolo[1,2,3-de]quinoxalin-8-yl)-butan-1-one] |  |  |  |  |  | poor solubility | negligible binding | negligible binding | negligible binding
